Source: patent publication US12161750B2, “Antibiotic formulations for lower back pain” (Persica Pharmaceuticals Ltd., priority 2016, dated 2024)
Values after ≈ are worked out from the molar mass of the structure shown.

Columns and labels:
[1] = In vitro diffusion and release from poloxamer gel embedded in an agar disc (HPLC); format: physicochemical; conditions: 100 microliters of poloxamer formulation embedded in an agar disc
Procedure: 100 microliters of poloxamer formulation were embedded in an agar disc. The release of loaded compound into media around the agar structure is measured. The assays mimic a disc containing a poloxamer injection. The mass of antibiotic released over 72 h was determined using high-performance liquid chromatography (HPLC).

[2] = system: Gram-positive bacteria; conditions: cited from earlier work
[3] = system: S. aureus; test: Sheep model of S. aureus intradiscal infection, prophylactic dosing; format: in vivo; conditions: Example 3; 5 mg/disc on day 0, discreet infection with 10^3 S. aureus per disc on day 3, harvest 24 h after infection
Procedure: (§1) Approximately 1 hour, or at another selected time, after the first injection, each sheep is given a second injection of the test formulation or control formulation. Each disc that was previously successfully injected with bacteria is given a 0.1 ml (target volume) intradiscal injection. As part of the anaesthesia the animal is given analgesics (intra-muscular) in the form of meloxicam at the recommended dosage. This analgesic may be repeated if considered necessary by the named veterinary surgeon. In a prophylactic model, the order of administrations is reversed such that the first injection is a formulation of antibiotic or control and the second injection contains the bacterial inoculum. The time between administration of the antibiotic and bacteria may be hours, days, weeks or months.
The order of the injections may be reversed such that the first injection is a formulation of antibiotic and the second injection contains the bacterial inoculum. The time between administration of the antibiotic and bacteria may be hours, days, weeks or months. The second injection may be co-localised or discreet e.g. injected on the same side of the disc as the first injection or injected on the other side of the disc to the first injection respectively.
Discs were treated with vancomycin (5 mg/disc) on day 0 and on day 3 were discreetly infected with 10^3 S. aureus per disc. […]

[4] = system: MRSA (methicillin resistant Staphylococcus aureus); conditions: formulated with poloxamer 407, sustained local delivery to the infected ear; cited from earlier work
[5] = system: S. aureus; test: Sheep model of S. aureus intradiscal infection, therapeutic dosing; format: in vivo; conditions: for discs sterilized: one hour post infection
Description: A sheep model of S. aureus intradiscal infection has been developed to test the in vivo efficacy of antibiotic formulations. Male Charollais or Suffolk cross sheep, approximately 35-40 kg+ at the start of the study were housed according to Home Office guidelines under the Animals (Scientific Procedures) Act 1986 and acclimatised for at least 7 days with straw bedding and access to water. They were fed a Sheep concentrate diet without added antibiotics with additional forage (hay/straw) provided.
The bacterial inoculum (ATCC 29213) is prepared from frozen glycerol/phosphate-buffered saline stock at 2.5×10^6 CFU/ml by dilution to 2×10^4 CFU/ml:
In a therapeutic model, each sheep is anesthetised and given four 0.05 ml (target volume) intradiscal Injections at L1/L2, L2/L3, L3/L4 and L4/5 of S. aureus inoculum (1×10^3 cells/disc), one injection per disc.
as §1
A single 20G 3.5″ spinal needle is positioned directly into the edge of the nucleus pulposus of each disc. Following confirmation of positioning of the needles a second 25G 4.69″ needle primed with the dose solution is inserted into the first needle and the tip placed into the middle of the nucleus pulposus. Following confirmation of positioning of the second needles each disc is injected with the bacteria. The inner needles will then be removed. Just prior to the 1 hour post-dose bacteria time-point a new 25G 4.69″ needle, primed with the dose solution, is inserted into the 20G 3.5″ and positioned into the middle of the nucleus pulposus. The second treatment is dose given via this needle, 1 hour post the first dose.
Bacterial infection: A single 20G 3.5″ spinal needle is positioned directly into the edge of the nucleus pulposus of each disc. Following confirmation of positioning of the needles a second 25G 4.69″ needle primed with the dose solution is inserted into the first needle and the tip placed into the middle of the nucleus pulposus. Following confirmation of positioning of the second needles each disc is injected with the bacteria. The needles will then be removed. The animals are repositioned to access the other side of the spine.
Injection of formulation: A second 20G 3.5″ spinal needle is positioned directly into the edge of the nucleus pulposus on the opposite side to the first injection of each disc. Just prior to time-point for administration a new 25G 4.69″ needle, primed with the dose solution, is inserted into the 20G 3.5″ and positioned into the middle of the nucleus pulposus. The second treatment is dose given via this needle.
At set time-points post-dose the sheep is killed. The injected vertebrae discs are dissected out and the nucleus pulposus from each disc is removed. In addition, an extra untreated disc is sampled to provide control tissue. The disc is removed after all of the treated discs for the particular animal with care to ensure no contamination between control and treated samples.
The sheep intradiscal infection model of Example 1 was used to evaluate the in vivo efficacy of therapeutically dosed vancomycin.

SMILES	input antibiotic accounted for (released) after 72 h [1]	MIC [2]	average reduction in bacterial burden [3]	effect on MRSA otitis media [4]	discs sterilized ([5]; Example 2, discreet dosing, 5 mg vancomycin/disc)	discs sterilized ([5]; Example 2, discreet dosing, 20 mg vancomycin/disc)	reduction in average bacterial burden ([5]; Example 2, discrete dosing groups)	discs sterilized ([5]; Example 2, vancomycin in Omnipaque with 0.5% hyaluronic acid, co-localised dosing, within 24 h)	sterile discs ([5]; Example 9, discrete dosing)	reduction in average disc bacterial burden ([5]; Example 9, discrete dosing from the other side of the disc)
CC(=O)NC[C@H]1CN(c2ccc(N3CCOCC3)c(F)c2)C(=O)O1 [Linezolid]	57%	4 µg/mL (≈ 11.9 µM)	–	–	–	–	–	–	–	–
CN[C@H](CC(C)C)C(=O)N[C@H]1C(=O)N[C@@H](CC(N)=O)C(=O)N[C@H]2C(=O)N[C@H]3C(=O)N[C@H](C(=O)N[C@H](C(=O)O)c4cc(O)cc(O)c4-c4cc3ccc4O)[C@H](O)c3ccc(c(Cl)c3)Oc3cc2cc(c3O[C@@H]2O[C@H](CO)[C@@H](O)[C@H](O)[C@H]2O[C@H]2C[C@](C)(N)[C@H](O)[C@H](C)O2)Oc2ccc(cc2Cl)[C@H]1O [Vancomycin]	92%	–	> 3 log10	completely cures the otitis media caused by MRSA infection	5 of 7	3 of 7	≤ 3 log10	all the discs were effectively sterilized	3 of 8	did not significantly reduce average bacterial disc burden
